Assay results published in US5643947A, “ω-amino-α-phenylalkanonitrile derivatives” (G. D. Searle & Co., priority 1995, dated 1997).
Like-named read-outs stand apart in the source and are kept apart here.

Legend:
[1] = test system: serotonin-2 (5-HT2) receptors of both blood vessels and brain; conditions: DeFeudis 1989; cited from earlier work
[2] = test system: calcium channel; conditions: DeFeudis 1989; cited from earlier work
[3] = target: T1, slow Ca^2+ channel binding sites (Cavia porcellus, UniProt O35505); assay: Ca2+ receptor binding, 3H-nitrendipine competition; parameters: species or system guinea-pig; conditions: for competition curve at slow Ca^2+ channel binding sites: 3H-nitrendipine competition, in words; for Ki: guinea-pig forebrain, 3H-nitrendipine 0.2 nM, pH 7.4, 25 °C, 90 min, read-out: CA2^+ BINDING pKi (converted)
T1 construct: forebrain; from tissue; host or cells: guinea-pig forebrain
T1 sequence (O35505 whole entry): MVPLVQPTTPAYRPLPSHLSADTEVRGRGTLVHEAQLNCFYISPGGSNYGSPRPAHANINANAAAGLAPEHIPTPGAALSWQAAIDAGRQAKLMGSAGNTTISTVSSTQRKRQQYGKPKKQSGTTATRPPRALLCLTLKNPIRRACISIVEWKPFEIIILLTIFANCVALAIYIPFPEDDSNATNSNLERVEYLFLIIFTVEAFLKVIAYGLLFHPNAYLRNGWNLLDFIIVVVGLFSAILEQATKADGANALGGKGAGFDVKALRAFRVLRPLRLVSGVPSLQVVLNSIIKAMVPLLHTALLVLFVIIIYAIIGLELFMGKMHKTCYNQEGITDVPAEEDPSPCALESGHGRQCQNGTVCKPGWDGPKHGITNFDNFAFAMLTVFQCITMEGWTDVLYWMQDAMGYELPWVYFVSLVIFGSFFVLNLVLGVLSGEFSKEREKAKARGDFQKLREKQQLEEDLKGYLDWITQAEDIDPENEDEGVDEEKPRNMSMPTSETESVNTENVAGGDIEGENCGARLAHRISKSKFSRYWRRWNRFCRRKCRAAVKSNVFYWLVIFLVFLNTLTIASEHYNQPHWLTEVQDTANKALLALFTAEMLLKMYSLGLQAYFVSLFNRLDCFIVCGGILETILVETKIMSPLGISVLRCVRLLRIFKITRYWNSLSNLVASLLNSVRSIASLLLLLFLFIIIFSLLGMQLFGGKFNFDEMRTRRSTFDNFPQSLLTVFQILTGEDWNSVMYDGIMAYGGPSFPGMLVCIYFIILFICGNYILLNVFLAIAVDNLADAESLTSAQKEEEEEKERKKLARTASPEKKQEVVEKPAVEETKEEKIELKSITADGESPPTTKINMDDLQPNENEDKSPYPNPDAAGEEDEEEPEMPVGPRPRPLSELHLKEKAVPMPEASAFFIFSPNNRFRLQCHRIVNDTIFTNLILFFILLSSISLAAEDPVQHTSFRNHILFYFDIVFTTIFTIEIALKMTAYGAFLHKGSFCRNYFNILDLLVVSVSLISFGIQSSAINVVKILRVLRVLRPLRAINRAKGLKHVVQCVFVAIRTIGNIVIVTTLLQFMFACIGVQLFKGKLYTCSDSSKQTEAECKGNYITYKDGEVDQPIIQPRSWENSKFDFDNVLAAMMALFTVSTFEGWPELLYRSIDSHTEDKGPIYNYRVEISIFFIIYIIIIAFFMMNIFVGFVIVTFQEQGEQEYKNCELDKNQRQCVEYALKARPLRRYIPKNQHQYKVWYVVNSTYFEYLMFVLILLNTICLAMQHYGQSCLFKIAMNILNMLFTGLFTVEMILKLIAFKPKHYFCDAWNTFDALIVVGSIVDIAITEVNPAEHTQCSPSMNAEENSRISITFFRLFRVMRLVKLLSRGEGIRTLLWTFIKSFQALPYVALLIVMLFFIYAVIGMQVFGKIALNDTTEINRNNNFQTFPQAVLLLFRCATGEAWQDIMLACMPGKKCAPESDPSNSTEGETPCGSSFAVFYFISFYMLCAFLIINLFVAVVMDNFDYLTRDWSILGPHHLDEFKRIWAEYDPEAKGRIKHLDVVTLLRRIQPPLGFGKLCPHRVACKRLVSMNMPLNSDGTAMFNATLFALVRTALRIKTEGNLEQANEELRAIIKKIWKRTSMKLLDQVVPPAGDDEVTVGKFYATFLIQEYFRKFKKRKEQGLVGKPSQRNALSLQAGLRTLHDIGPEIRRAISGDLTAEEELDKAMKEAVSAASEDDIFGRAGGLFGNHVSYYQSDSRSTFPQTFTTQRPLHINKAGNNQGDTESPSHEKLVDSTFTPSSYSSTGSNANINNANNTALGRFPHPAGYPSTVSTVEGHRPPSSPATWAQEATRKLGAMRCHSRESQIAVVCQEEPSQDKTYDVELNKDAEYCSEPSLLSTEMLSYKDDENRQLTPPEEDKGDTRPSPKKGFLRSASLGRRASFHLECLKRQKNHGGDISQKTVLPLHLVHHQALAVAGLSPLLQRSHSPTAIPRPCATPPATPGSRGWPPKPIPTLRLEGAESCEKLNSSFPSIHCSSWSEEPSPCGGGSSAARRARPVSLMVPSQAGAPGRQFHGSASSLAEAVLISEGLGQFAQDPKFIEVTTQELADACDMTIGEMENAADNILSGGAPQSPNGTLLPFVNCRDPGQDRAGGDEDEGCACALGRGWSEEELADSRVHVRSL
Method: (§1) Receptor binding experiments were conducted under the experimental conditions described in Table III. ^3 H-nitrendipine is the radioligand of choice to determine, after competition at different concentrations, the affinity of compounds of the invention, for the slow Ca^2+ channel binding sites. […] After this in vitro biochemical testing, the compounds of the invention were tested for their CA^2+ antagonist properties on isolated organs. The method used was updated from M Spedding (Nauyn-Schmiedeberg's Arch. Pharmacol., 318, 234-240, 1982) and can be summarized as follows: Aorta rings from male rats were prepared and maintained in oxygenated Krebs solution at 37° C. The contractions were induced by 40 mM K+ in the absence or in the presence of the test compound. Each test compound was tested at least twice. […] The phasic and tonic parts of each response elicited by K+ were considered separately and were expressed in % of their corresponding controls. The IC50 values (from pIC50) were estimated by plotting the % response against the log of the concentrations.
(§2) Methodological Data for In Vitro Binding Assay of Various Receptors
(§3) KD values (Dissociation Constant) were determined by Scatchard analysis. Ki values (Inhibition Constant) were calculated according to the Cheng and Prusoff equation, using IC50 values: [formula]

[4] = test system: Aorta rings; assay: Ca2+ antagonism on isolated rat aorta rings, contractions induced by 40 mM K+; format: cell-based; conditions: for inhibition of phasic and tonic phases of the contractions: in words
Method: as §1, with “The method used was updated from M Spedding (Nauyn-Schmiedeberg's Arch. Pharmacol., 318, 234-240, 1982) and can be summarized as follows: Aorta rings from male rats were prepared and maintained in oxygenated Krebs solution at 37° C.” left out

[5] = test system: femoral arterial circulation; assay: Vasodilation in perfused hindlimb of anaesthetized dog; format: in vivo; conditions: for VASODILATION score: 30 mcg/kg injected into perfused femoral artery, vs papaverine; for vasodilator activity compared with papaverine: 30 mcg/kg, in words
Method: The peripheral vasodilator activity of compounds of the invention was measured in anaesthetized dog at the femoral arterial circulation. For this procedure, the femoral artery (the collaterals of which were ligated) was perfused with a constant flow rate of blood taken from aorta. The perfusion pressure measured at the femoral artery varied as a function of the resistance of the perfused area. The test compounds in diluted solvents were directly injected in the system at a dose of 30 mcg/kg. With the blood circulation rate being maintained constant, vasodilation was thus measured by a decrease of the perfusion pressure, in comparison with the action of papaverine considered as standard. The vasodilator activity was rated as follows:
+: 1/3 of the papaverine activity.
++: 2/3 of the papaverine activity.
+++: activity equal to that of papaverine (i.e. 30 to 40 mm Hg).
++++: activity higher than that of papaverine.

[6] = test system: spontaneously hypertensive rats; assay: Antihypertensive activity in spontaneously hypertensive rats (SHR); format: in vivo, rat; conditions: 60 mg/kg oral; for SHR score: systolic pressure up to 3 hours; for lowering of the systolic blood pressure: SHR
Method: The biological activity of the compounds of the invention was evaluated in vivo on spontaneous hypertensive rats. In this test, antihypertensive activity was tested by oral administration to non-anaesthetized, spontaneously hypertensive rats, on which the systolic arterial pressure was measured at the median coccygeal artery by means of a plethysmographic method [J. Roba, G. Lambelin, A. F. De Schaepdryver, Arch. Int. Pharmacodyn., 200, 182 (1972)]. The arterial pressure was measured every 30 minutes from two hours before to three hours after oral administration of 60 mg/kg of the test compounds or of a placebo (1% tragacanth gum mucilage). Only rats having a systolic pressure of 180 to 220 mmHg were used. Each compound was tested in two rats.
The antihypertensive effects were rated as follows:
+: reduction of 10 to 20 mm Hg.
++: reduction of 20 to 30 mm Hg.
+++: reduction of 30 to 40 mm Hg.
++++: reduction >40 mm Hg.

[7] = target: T2, 5HT2 receptor (Rattus norvegicus, UniProt P14842); assay: 5HT2 receptor binding, 3H-ketanserin, rat frontal cortex
T2 construct: frontal cortex preparations of rat; from tissue; host or cells: rat frontal cortex
T2 sequence (P14842 whole entry): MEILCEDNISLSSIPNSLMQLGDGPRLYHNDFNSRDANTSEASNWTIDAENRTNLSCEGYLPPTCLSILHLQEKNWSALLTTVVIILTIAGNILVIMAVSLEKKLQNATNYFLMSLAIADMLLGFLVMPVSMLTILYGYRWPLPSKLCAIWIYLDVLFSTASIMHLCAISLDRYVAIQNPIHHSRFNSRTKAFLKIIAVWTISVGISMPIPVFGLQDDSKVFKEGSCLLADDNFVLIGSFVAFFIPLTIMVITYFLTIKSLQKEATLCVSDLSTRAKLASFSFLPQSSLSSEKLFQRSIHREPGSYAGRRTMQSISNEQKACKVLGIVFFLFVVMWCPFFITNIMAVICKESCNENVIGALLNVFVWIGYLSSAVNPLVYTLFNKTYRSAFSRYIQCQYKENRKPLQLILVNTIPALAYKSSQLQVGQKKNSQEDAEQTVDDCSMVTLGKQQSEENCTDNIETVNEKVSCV
Method: as §2, §3

[8] = target: α1 -adrenergic receptor; assay: α1-adrenergic receptor binding, 3H-WB4101, rat forebrain; conditions: for α1 pKi: rat forebrain, 3H-WB-4101 1.6 nM, pH 7.4, 25 °C, 15 min, values marked (2) are estimated; for affinity for the α1 -adrenergic receptor: 3H-WB4101, rat forebrain, in words
Method: as §2, §3

[9] = Acute oral toxicity in mice; conditions: mouse, in vivo, male mice, mortality over 15 days
Method: Compounds #1, #2 , #3, #4 and #7 were tested for acute toxicity. The acute toxicity was determined after oral administration of the test compound to mice. Compound to be tested was suspended in a 1% tragacanth gum mucilage and was administered by means of an intragastric tube to a group of three male mice per dose. The mortailty was recorded over a period of 15 days.

[10] = 37 °C, phasic part, read-out: AORTA/K+ pIC50 phasic (converted)
[11] = 37 °C, tonic part, read-out: AORTA/K+ pIC50 tonic (converted)
[12] = read-out: Concentration inhibiting the contractions by 50%

Structure (SMILES): CC(C)[C@@](C#N)(CCCN(C)CCc1ccccc1)c1ccccc1 [(S)-emopamil]
- action at serotonin-2 (5-HT2) receptors [1]: antagonist at serotonin-2 (5-HT2) receptors
- calcium channel blocking activity [2]: showing calcium channel blocking activity

Structure (SMILES): CCCCCCCCN(C)CCCC(C#N)(c1ccc(OC)c(OC)c1)C(C)C (centres unmarked) [Compound #1, 5-[(n-octyl)methylamino]-2-(3,4-dimethoxyphenyl) -2-isopropyl-valeronitrile]
- competition curve at slow Ca^2+ channel binding sites [3]: does not reach the non-specific base-line
- IC50 [4, 10]: 200 nM
- IC50 [4, 11]: 200 nM
- inhibition of phasic and tonic phases of the contractions [4]: similarly inhibited
- IC50 [4, 12]: 200 nM
- VASODILATION score [5]: ++++
- vasodilator activity compared with papaverine [5]: more active than papaverine
- SHR score [6]: ++++ (reduction >40 mm Hg.)
- lowering of the systolic blood pressure [6]: more than 40 mm Hg
- Ki [7]: 100 nM
- α1 pKi [8]: ≤ 6
- LD50 at 360 h [9]: > 300 mg/kg

Structure (SMILES): COc1ccc(C(C#N)(CCCN(C)CCCCc2ccccc2)C(C)C)cc1OC (centres unmarked) [Compound #2, 5-[(4-phenylbutyl)methylamino]-2-(3,4-dimethoxyphenyl)-2-isopropylvaleronitrile]
- competition curve at slow Ca^2+ channel binding sites [3]: does not reach the non-specific base-line
- IC50 [4, 10]: 63.1 nM
- IC50 [4, 11]: 100 nM
- inhibition of phasic and tonic phases of the contractions [4]: similarly inhibited
- IC50 [4, 12]: 60 nM
- VASODILATION score [5]: ++++
- vasodilator activity compared with papaverine [5]: more active than papaverine
- SHR score [6]: ++++ (reduction >40 mm Hg.)
- lowering of the systolic blood pressure [6]: more than 40 mm Hg
- Ki [7]: 100 nM
- affinity for the α1 -adrenergic receptor [8]: display affinity for the α1 -adrenergic receptor
- α1 pKi [8]: 7
- LD50 at 360 h [9]: 350 mg/kg

Structure (SMILES): COc1ccc(C(C#N)(CCCN(C)CCCCCc2ccccc2)C(C)C)cc1OC (centres unmarked) [compound 3, 5-[5-(phenylpentyl)methylamino]-2-(3,4-dimethoxyphenyl)-2-isopropylvaleronitrile]
- competition curve at slow Ca^2+ channel binding sites [3]: reaching the non-specific level
- Ki [3]: 251 nM
- VASODILATION score [5]: +++ (activity equal to that of papaverine (i.e. 30 to 40 mm Hg).)
- Ki [7]: 10 nM
- α1 pKi [8]: ≤ 6
- LD50 at 360 h [9]: 470 mg/kg

Structure (SMILES): COc1ccc(C(C#N)(CCCN(C)CCCc2ccccc2)C(C)C)cc1OC (centres unmarked) [compound 4]
- competition curve at slow Ca^2+ channel binding sites [3]: does not reach the non-specific base-line
- Ki [7]: 31.6 nM
- α1 pKi [8]: ≤ 6
- LD50 at 360 h [9]: 540 mg/kg

Structure (SMILES): CCCCCCCCN(CCCC(C#N)(c1ccc(OC)c(OC)c1)C(C)C)Cc1ccccc1 (centres unmarked) [compound 5]
- competition curve at slow Ca^2+ channel binding sites [3]: reaching the non-specific level
- Ki [3]: 501 nM
- Ki [7]: > 1000 nM
- α1 pKi [8]: ≤ 6

Structure (SMILES): CCCCCCCCCCN(C)CCCC(C#N)(c1ccc(OC)c(OC)c1)C(C)C (centres unmarked) [compound 6, 5-[(n-decyl)methylamino]-2-(3,4-dimethoxyphenyl)-2-isopropylvaleronitrile]
- competition curve at slow Ca^2+ channel binding sites [3]: reaching the non-specific level
- Ki [3]: 39.8 nM
- IC50 ([4]; 37 °C, one value printed for phasic/tonic, read-out: AORTA/K+ pIC50 phasic/tonic (converted)): ≥ 1000 nM
- Ki [7]: 100 nM
- α1 pKi [8]: < 6

Structure (SMILES): COc1ccc(C(C#N)(CCCN(C)CC=Cc2ccccc2)C(C)C)cc1OC (centres unmarked) [compound 7]
- competition curve at slow Ca^2+ channel binding sites [3]: does not reach the non-specific base-line
- affinity for the α1 -adrenergic receptor [8]: display affinity for the α1 -adrenergic receptor
- α1 pKi [8]: 6.8
- LD50 at 360 h [9]: > 1000 mg/kg

Structure (SMILES): CCCCCCCCNCCCC(C#N)(c1ccc(OC)c(OC)c1)C(C)C (centres unmarked) [compound 8]
- competition curve at slow Ca^2+ channel binding sites [3]: reaching the non-specific level
- Ki [3]: 126 nM
- Ki [7]: 158 nM
- affinity for the α1 -adrenergic receptor [8]: display affinity for the α1 -adrenergic receptor
- α1 pKi [8]: 6.7

Structure (SMILES): CCOC(=O)C1=C(C)NC(C)=C(C(=O)OC)C1c1cccc([N+](=O)[O-])c1 (centres unmarked) [nitrendipine, reference compound]
- Kd [3]: 0.2 nM
